Laboratory results reported in patent US6958340B2, “Tyrosine kinase inhibitors” (Merck & Co., Inc., priority 2001, dated 2005).

- melting point: 183 °C
SMILES: Cc1cc(C)cc(Nc2nccc(-n3ccnc3-c3ccccc3)n2)c1 [Compound 1-24, N-(3,5-dimethylphenyl)-4-(2-phenyl-1H-imidazol-1-yl)pyrimidin-2-amine]
